Bounds are passed on as bounds.

This experiment deals with CDK7/CycH/MNAT1 (Homo sapiens (Human), UniProt P50613). Description: Biochemical Assay for CDK7 (TR-FRET kinase assay). To be noted: 60 min pre-incubation with kinase, 1 mM ATP; for inhibition at 10 µM / % inhibition @ 10 μM: 10 μM compound. In outline:
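TR-FRET with 5 nM CDK7/CycH/MNAT1, compound pre-incubated 60 min at room temperature, then 100 nM ULight-MBP and 1 mM ATP for 60 min; stopped with EDTA, Eu anti-phospho-MBP read at 665/615 nm. 1% DMSO; IC50 from sigmoidal fit. Time-dependence tested with 20, 60, 180 min pre-incubation.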
(TR-FRET usually uses a lanthanide donor and a delayed reading to cut background.)

Sequence of CDK7/CycH/MNAT1 (P50613 whole entry): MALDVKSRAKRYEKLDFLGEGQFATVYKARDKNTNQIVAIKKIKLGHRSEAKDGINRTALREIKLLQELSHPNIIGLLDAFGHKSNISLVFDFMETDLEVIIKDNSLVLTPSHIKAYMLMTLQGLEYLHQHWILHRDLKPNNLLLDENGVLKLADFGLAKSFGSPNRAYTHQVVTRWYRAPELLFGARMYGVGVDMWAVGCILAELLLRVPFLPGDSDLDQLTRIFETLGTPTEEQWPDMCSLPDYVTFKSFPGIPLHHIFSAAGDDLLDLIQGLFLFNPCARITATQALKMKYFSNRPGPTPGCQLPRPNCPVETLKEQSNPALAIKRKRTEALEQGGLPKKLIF
Sequence of CDK7/CycH/MNAT1 (P51946 whole entry partner): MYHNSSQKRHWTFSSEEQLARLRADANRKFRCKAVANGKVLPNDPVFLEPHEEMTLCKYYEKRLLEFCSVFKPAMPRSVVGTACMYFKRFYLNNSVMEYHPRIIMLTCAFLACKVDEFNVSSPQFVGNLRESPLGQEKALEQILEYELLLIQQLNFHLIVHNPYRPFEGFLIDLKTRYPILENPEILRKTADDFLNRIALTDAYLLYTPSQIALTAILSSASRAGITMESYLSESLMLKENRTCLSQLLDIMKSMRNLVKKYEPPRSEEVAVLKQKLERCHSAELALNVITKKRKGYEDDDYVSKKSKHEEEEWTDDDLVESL
Sequence of CDK7/CycH/MNAT1 (P51948 whole entry partner): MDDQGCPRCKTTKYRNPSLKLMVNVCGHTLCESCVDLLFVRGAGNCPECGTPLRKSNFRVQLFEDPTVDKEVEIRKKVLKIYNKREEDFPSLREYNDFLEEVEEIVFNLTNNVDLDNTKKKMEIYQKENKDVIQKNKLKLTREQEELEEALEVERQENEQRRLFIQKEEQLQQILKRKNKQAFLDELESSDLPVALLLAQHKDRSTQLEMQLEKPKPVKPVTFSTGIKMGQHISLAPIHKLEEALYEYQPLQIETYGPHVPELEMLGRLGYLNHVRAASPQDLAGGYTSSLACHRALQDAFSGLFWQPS

On to `C=CC(=O)Nc1ccc(C(=O)Nc2cccc(Nc3cc(CC)[nH]n3)c2)cc1` [Compound 83, 4-acrylamido-N-(3-((5-ethyl-1H-pyrazol-3-yl)amino)phenyl)benzamide], for which the inhibition – broadly, the change of the read-out against control, counted positive when it falls – at 10 µM turned out to be 62% and the IC50 – broadly, the point on the concentration scale where inhibition reaches its midpoint – is over 100 nM.
As for `CC(C(=O)Nc1cc(C2CC2)[nH]n1)c1cccc(-c2ccc(NC(=O)/C=C/CN(C)C)cc2)c1` (single isomer, unassigned) [Compound 3, (E)-N-(3′-(1-((5-cyclopropyl-1H-pyrazol-3-yl)amino)-1-oxopropan-2-yl)-[1,1′-biphenyl]-4-yl)-4-(dimethylamino)but-2-enamide], the “% inhibition @ 10 μM” value is recorded as 99% and the IC50 was in the range of 25 to 100 nM.
Regarding `CC(C(=O)Nc1cc(C2CCCC2)[nH]n1)c1cccc(-c2ccc(NC(=O)/C=C/CN(C)C)c(F)c2)c1` (stereo not shown) [Compound 28, (E)-N-(3′-(1-((5-cyclopentyl-1H-pyrazol-3-yl)amino)-1-oxopropan-2-yl)-3-fluoro-[1,1′-biphenyl]-4-yl)-4-(dimethylamino)but-2-enamide], the inhibition at 10 µM came out at 96% and the 50% inhibitory concentration (IC50) was in the range of 25 to 100 nM.
On the same counts, the results for `CON(C)C/C=C/C(=O)Nc1ccc(-c2cccc(C(C)C(=O)Nc3cc(C4CC4)[nH]n3)c2)cn1` (stereo not shown) [Compound 62, (E)-N-(5-(3-(1-((5-cyclopropyl-1H-pyrazol-3-yl)amino)-1-oxopropan-2-yl)phenyl)pyridin-2-yl)-4-(methoxy(methyl)amino)but-2-enamide] are 81% and over 100 nM.
The compound `C=CC(=O)Nc1ccc(-c2cccc(C(CC)C(=O)Nc3cc(C4CC4)[nH]n3)c2)cc1F` (stereo not shown) [Compound 27, 2-(4′-acrylamido-3′-fluoro-[1,1′-biphenyl]-3-yl)-N-(5-cyclopropyl-1H-pyrazol-3-yl)butanamide] returned an inhibition at 10 µM of 98% and an IC50 of under 25 nM.
On the same counts, the results for `CC(C(=O)Nc1cc(C2CC2)[nH]n1)c1cccc(-c2ccc(NC(=O)/C=C/CN3CC[C@@H](F)C3)nc2)c1` (single isomer, unassigned) [Compound 50] are 94% and under 25 nM.
Consider `CC(C(=O)Nc1cc(C2CC2)[nH]n1)c1cccc(-c2cncc(NC(=O)/C=C/CN3CCCC3)n2)c1` (stereo not shown) [Compound 92, (E)-N-(6-(3-(1-((5-cyclopropyl-1H-pyrazol-3-yl)amino)-1-oxopropan-2-yl)phenyl)pyrazin-2-yl)-4-(pyrrolidin-1-yl)but-2-enamide], for which the inhibition at 10 µM came to 86% and the 50% inhibitory concentration (IC50) was in the range of 25 to 100 nM.
In turn, `CC(C(=O)Nc1cc(C2CC2)[nH]n1)c1cccc(-c2ccc3c(c2)CCN3C(=O)/C=C/CN(C)C)c1` (stereo not shown) [Compound 29, (E)-N-(5-cyclopropyl-1H-pyrazol-3-yl)-2-(3-(1-(4-(dimethylamino)but-2-enoyl)indolin-5-yl)phenyl)propanamide] showed an inhibition at 10 µM of 97% and an IC50 of under 25 nM.
On the same counts, the results for `CC(C(=O)Nc1cc(C2CC2)[nH]n1)c1cccc(-c2ccc(NC(=O)/C=C/CN3CCOCC3)c(F)c2)c1` (stereo not shown) [Compound 34, (E)-N-(3′-(1-((5-cyclopropyl-1H-pyrazol-3-yl)amino)-1-oxopropan-2-yl)-3-fluoro-[1,1′-biphenyl]-4-yl)-4-morpholinobut-2-enamide] are 88% and over 100 nM.
In turn, `COC(=O)[C@@H]1CCCN1C/C=C/C(=O)Nc1ccc(-c2cccc(C(C)C(=O)Nc3cc(C4CC4)[nH]n3)c2)cn1` (stereo partly drawn) [Compound 81, methyl ((E)-4-((5-(3-(1-((5-cyclopropyl-1H-pyrazol-3-yl)amino)-1-oxopropan-2-yl)phenyl)pyridin-2-yl)amino)-4-oxobut-2-en-1-yl)-L-prolinate] registered an inhibition at 10 µM of 100% and a 50% inhibitory concentration (IC50) of 25 to 100 nM.
On the same counts, the results for `C=CC(=O)Nc1ccc(-c2cccc(C(C)C(=O)Nc3cc(C4CC4)[nH]n3)c2)cc1OC` (stereo not shown) [Compound 65, N-(3′-(1-((5-cyclopropyl-1H-pyrazol-3-yl)amino)-1-oxopropan-2-yl)-3-methoxy-[1,1′-biphenyl]-4-yl)acrylamide] are 94% and over 100 nM.
On the same counts, the results for `CC(C(=O)Nc1cc(C2CC2)[nH]n1)c1ccc(F)c(-c2ccc(NC(=O)/C=C/CN(C)C)cc2)c1` (stereo not shown) [Compound 4, (E)-N-(5′-(1-((5-cyclopropyl-1H-pyrazol-3-yl)amino)-1-oxopropan-2-yl)-2′-fluoro-[1,1′-biphenyl]-4-yl)-4-(dimethylamino)but-2-enamide] are 95% and over 100 nM.
On the same counts, the results for `C=CC(=O)Nc1ccc(-c2cccc(C(C)C(=O)Nc3n[nH]c(C4CC4)c3C)c2)cc1` (stereo not shown) [Compound 30, N-(3′-(1-((5-cyclopropyl-4-methyl-1H-pyrazol-3-yl)amino)-1-oxopropan-2-yl)-[1,1′-biphenyl]-4-yl)acrylamide] are 28% and over 100 nM.
`CC(C(=O)Nc1cc(C2CC2)[nH]n1)c1cccc(-c2ccc(NC(=O)/C=C/CN3CC[C@@H](F)C3)nc2)c1` (stereo partly drawn) [Compound 49, (E)-N-(5-(3-(1-((5-cyclopropyl-1H-pyrazol-3-yl)amino)-1-oxopropan-2-yl)phenyl)pyridin-2-yl)-4-((R)-3-fluoropyrrolidin-1-yl)but-2-enamide]: 10 µM produced 89% inhibition and the half-inhibitory concentration (IC50) was under 25 nM.
Turning to `CC(C(=O)Nc1cc(C2CC2)[nH]n1)c1cccc(-c2ccc(NC(=O)/C=C/CN3CCOCC3)nc2)c1` (single isomer, unassigned) [Compound 12, (E)-N-(5-(3-(1-((5-cyclopropyl-1H-pyrazol-3-yl)amino)-1-oxopropan-2-yl)phenyl)pyridin-2-yl)-4-morpholinobut-2-enamide], the “% inhibition @ 10 μM” value was 98% and the IC50 was under 25 nM.
`CC(C)C(C(=O)Nc1cc(C2CC2)[nH]n1)c1cccc(-c2ccc(NC(=O)/C=C/CN(C)C)cn2)c1` (stereo not shown) [Compound 36, (E)-N-(6-(3-(1-((5-cyclopropyl-1H-pyrazol-3-yl)amino)-3-methyl-1-oxobutan-2-yl)phenyl)pyridin-3-yl)-4-(dimethylamino)but-2-enamide] had an inhibition at 10 µM of 98% and a 50% inhibitory concentration (IC50) of under 25 nM.
For `CCc1cc(NC(=O)C(C)c2cccc(-c3ccc(NC(=O)/C=C/CN(C)C)cc3)c2)n[nH]1` (stereo not shown) [Compound 8, (E)-4-(dimethylamino)-N-(3′-(1-((5-ethyl-1H-pyrazol-3-yl)amino)-1-oxopropan-2-yl)-[1,1′-biphenyl]-4-yl)but-2-enamide], testing at 10 µM gave an inhibition of 92% and the IC50 was over 100 nM.
`CC(C)C(C(=O)Nc1cc(C2CC2)[nH]n1)c1cccc(-c2ccc(NC(=O)/C=C/CN(C)C)c(F)c2)c1` (stereo not shown) [Compound 43, (E)-N-(3′-(1-((5-cyclopropyl-1H-pyrazol-3-yl)amino)-3-methyl-1-oxobutan-2-yl)-3-fluoro-[1,1′-biphenyl]-4-yl)-4-(dimethylamino)but-2-enamide] came in with an inhibition at 10 µM of 99% and a half-inhibitory concentration (IC50) of under 25 nM.
The compound `C=CC(=O)Nc1ccc(-c2cccc(CC(=O)Nc3cc(C)[nH]n3)c2)cc1` [Compound 86, N-(3′-(2-((5-Methyl-1H-pyrazol-3-yl)amino)-2-oxoethyl)-[1,1′-biphenyl]-4-yl)acrylamide] registered an inhibition at 10 µM of 48%.

The values above are taken from patent publication US11174232B2, “Substituted heterocyclyl derivatives as CDK inhibitors” (Aurigene Discovery Technologies Limited, priority 2015, dated 2021).
